In ChEMBL document CHEMBL1153210, “Synthesis, spectral analysis and in vitro microbiological evaluation of 3-(3-alkyl-2,6-diarylpiperin-4-ylidene)-2-thioxoimidazolidin-4-ones as a new class of antibacterial and antifungal agents” (2010):
Values after ≈ are worked out from the molar mass of the structure shown. Active and inactive are the calls of the source. The rule behind the calls is not given here.

How the values were obtained:
[1] = test system: Staphylococcus aureus; assay: Antibacterial activity against Staphylococcus aureus after 24 hrs by twofold serial dilution method; format: functional
[2] = test system: Streptococcus; assay: Antibacterial activity against beta-Hemolytic streptococcus after 24 hrs by twofold serial dilution method; format: functional
[3] = test system: Vibrio cholerae; assay: Antibacterial activity against Vibrio cholerae after 24 hrs by twofold serial dilution method; format: functional
[4] = test system: Escherichia coli; assay: Antibacterial activity against Escherichia coli after 24 hrs by twofold serial dilution method; format: functional
[5] = test system: Pseudomonas aeruginosa; assay: Antibacterial activity against Pseudomonas aeruginosa after 24 hrs by twofold serial dilution method; format: functional
[6] = test system: Aspergillus flavus; assay: Antifungal activity against Aspergillus flavus after 72 to 96 hrs by twofold serial dilution method; format: functional
[7] = test system: Candida albicans; assay: Antifungal activity against Candida albicans after 72 to 96 hrs by twofold serial dilution method; format: functional
[8] = test system: Candida; assay: Antifungal activity against Candida 6 after 72 to 96 hrs by twofold serial dilution method; format: functional
[9] = test system: Candida; assay: Antifungal activity against Candida 51 after 72 to 96 hrs by twofold serial dilution method; format: functional
[10] = test system: Escherichia coli; assay: Antibacterial activity against Escherichia coli at 200 ug/ml after 24 hrs by twofold serial dilution method; format: functional, organism-based
[11] = test system: Aspergillus flavus; assay: Antifungal activity against Aspergillus flavus at 200 ug/ml after 72 to 96 hrs by twofold serial dilution method; format: functional, organism-based
[12] = test system: Staphylococcus aureus; assay: Antibacterial activity against Staphylococcus aureus at 200 ug/ml after 24 hrs by twofold serial dilution method; format: functional, organism-based
[13] = test system: Candida; assay: Antifungal activity against Candida 51 at 200 ug/ml after 72 to 96 hrs by twofold serial dilution method; format: functional, organism-based

Row | SMILES | MIC [1] | MIC [2] | MIC [3] | MIC [4] | MIC [5] | MIC [6] | MIC [7] | MIC [8] | MIC [9] | MIC [10] | MIC [11] | MIC [12] | MIC [13]
1 | Cc1ccc(C2C/C(=N\N3C(=O)CNC3=S)C(C)C(c3ccc(C)cc3)N2)cc1 (configuration not stated) | 25 µg/mL (≈ 61.5 µM) | 50 µg/mL (≈ 123 µM) | 50 µg/mL (≈ 123 µM) | 50 µg/mL (≈ 123 µM) | 50 µg/mL (≈ 123 µM) | 12.5 µg/mL (≈ 30.7 µM) | 50 µg/mL (≈ 123 µM) | 6.25 µg/mL (≈ 15.4 µM) | 12.5 µg/mL (≈ 30.7 µM) |  |  |  | 
2 | COc1ccc(C2C/C(=N\N3C(=O)CNC3=S)C(C)(C)C(c3ccc(OC)cc3)N2)cc1 (configuration not stated) | 200 µg/mL (≈ 442 µM) | 50 µg/mL (≈ 110 µM) | 50 µg/mL (≈ 110 µM) |  | 50 µg/mL (≈ 110 µM) | 6.25 µg/mL (≈ 13.8 µM) | 12.5 µg/mL (≈ 27.6 µM) | 25 µg/mL (≈ 55.2 µM) | 6.25 µg/mL (≈ 13.8 µM) | inactive |  |  | 
3 | CC1(C)/C(=N/N2C(=O)CNC2=S)CC(c2ccccc2)NC1c1ccccc1 (configuration not stated) | 100 µg/mL (≈ 255 µM) | 25 µg/mL (≈ 63.7 µM) | 25 µg/mL (≈ 63.7 µM) | 100 µg/mL (≈ 255 µM) | 100 µg/mL (≈ 255 µM) |  | 50 µg/mL (≈ 127 µM) | 100 µg/mL (≈ 255 µM) | 50 µg/mL (≈ 127 µM) |  | inactive |  | 
4 | CC1/C(=N/N2C(=O)CNC2=S)CC(c2ccc(Cl)cc2)NC1c1ccc(Cl)cc1 (configuration not stated) | 6.25 µg/mL (≈ 14 µM) | 50 µg/mL (≈ 112 µM) | 50 µg/mL (≈ 112 µM) | 50 µg/mL (≈ 112 µM) | 50 µg/mL (≈ 112 µM) | 12.5 µg/mL (≈ 27.9 µM) | 50 µg/mL (≈ 112 µM) | 50 µg/mL (≈ 112 µM) | 12.5 µg/mL (≈ 27.9 µM) |  |  |  | 
5 | O=C1CNC(=S)N1N=C1CC(c2ccccc2)NC(c2ccccc2)C1 (configuration not stated) | 100 µg/mL (≈ 274 µM) | 50 µg/mL (≈ 137 µM) | 50 µg/mL (≈ 137 µM) | 50 µg/mL (≈ 137 µM) | 50 µg/mL (≈ 137 µM) | 12.5 µg/mL (≈ 34.3 µM) | 12.5 µg/mL (≈ 34.3 µM) | 50 µg/mL (≈ 137 µM) | 100 µg/mL (≈ 274 µM) |  |  |  | 
6 | CC1(C)/C(=N/N2C(=O)CNC2=S)CC(c2ccc(Cl)cc2)NC1c1ccc(Cl)cc1 (configuration not stated) | 25 µg/mL (≈ 54.2 µM) | 12.5 µg/mL (≈ 27.1 µM) | 12.5 µg/mL (≈ 27.1 µM) | 50 µg/mL (≈ 108 µM) | 25 µg/mL (≈ 54.2 µM) | 25 µg/mL (≈ 54.2 µM) | 50 µg/mL (≈ 108 µM) | 50 µg/mL (≈ 108 µM) | 50 µg/mL (≈ 108 µM) |  |  |  | 
7 | Cc1ccc(C2CC(=NN3C(=O)CNC3=S)CC(c3ccc(C)cc3)N2)cc1 (configuration not stated) |  | 100 µg/mL (≈ 255 µM) | 100 µg/mL (≈ 255 µM) | 200 µg/mL (≈ 510 µM) | 25 µg/mL (≈ 63.7 µM) | 6.25 µg/mL (≈ 15.9 µM) | 12.5 µg/mL (≈ 31.8 µM) | 6.25 µg/mL (≈ 15.9 µM) | 6.25 µg/mL (≈ 15.9 µM) |  |  | inactive | 
8 | O=C(O)c1cn(C2CC2)c2cc(N3CCNCC3)c(F)cc2c1=O [CIPROFLOXACIN] |  | 50 µg/mL (≈ 151 µM) | 50 µg/mL (≈ 151 µM) | 25 µg/mL (≈ 75.4 µM) |  |  |  |  |  |  |  |  | 
9 | CC1/C(=N/N2C(=O)CNC2=S)CC(c2ccccc2)NC1c1ccccc1 (configuration not stated) | 200 µg/mL (≈ 528 µM) | 100 µg/mL (≈ 264 µM) | 100 µg/mL (≈ 264 µM) | 50 µg/mL (≈ 132 µM) | 50 µg/mL (≈ 132 µM) | 50 µg/mL (≈ 132 µM) | 50 µg/mL (≈ 132 µM) | 50 µg/mL (≈ 132 µM) | 50 µg/mL (≈ 132 µM) |  |  |  | 
10 | CC1/C(=N/N2C(=O)CNC2=S)CC(c2ccc(F)cc2)NC1c1ccc(F)cc1 (configuration not stated) | 6.25 µg/mL (≈ 15.1 µM) | 12.5 µg/mL (≈ 30.2 µM) | 12.5 µg/mL (≈ 30.2 µM) | 12.5 µg/mL (≈ 30.2 µM) | 6.25 µg/mL (≈ 15.1 µM) | 6.25 µg/mL (≈ 15.1 µM) | 6.25 µg/mL (≈ 15.1 µM) | 12.5 µg/mL (≈ 30.2 µM) | 6.25 µg/mL (≈ 15.1 µM) |  |  |  | 
11 | COc1ccc(C2C/C(=N\N3C(=O)CNC3=S)C(C)C(c3ccc(OC)cc3)N2)cc1 (configuration not stated) | 50 µg/mL (≈ 114 µM) | 25 µg/mL (≈ 57 µM) | 25 µg/mL (≈ 57 µM) | 100 µg/mL (≈ 228 µM) | 25 µg/mL (≈ 57 µM) | 12.5 µg/mL (≈ 28.5 µM) | 50 µg/mL (≈ 114 µM) | 12.5 µg/mL (≈ 28.5 µM) | 12.5 µg/mL (≈ 28.5 µM) |  |  |  | 
12 | CC1(C)/C(=N/N2C(=O)CNC2=S)CC(c2ccc(F)cc2)NC1c1ccc(F)cc1 (configuration not stated) | 12.5 µg/mL (≈ 29.2 µM) | 6.25 µg/mL (≈ 14.6 µM) | 6.25 µg/mL (≈ 14.6 µM) | 6.25 µg/mL (≈ 14.6 µM) | 6.25 µg/mL (≈ 14.6 µM) | 25 µg/mL (≈ 58.3 µM) | 50 µg/mL (≈ 117 µM) | 50 µg/mL (≈ 117 µM) | 50 µg/mL (≈ 117 µM) |  |  |  | 
13 | COc1ccc(C2CC(=NN3C(=O)CNC3=S)CC(c3ccc(OC)cc3)N2)cc1 (configuration not stated) | 50 µg/mL (≈ 118 µM) | 100 µg/mL (≈ 236 µM) | 100 µg/mL (≈ 236 µM) | 50 µg/mL (≈ 118 µM) | 100 µg/mL (≈ 236 µM) | 12.5 µg/mL (≈ 29.4 µM) | 12.5 µg/mL (≈ 29.4 µM) | 6.25 µg/mL (≈ 14.7 µM) |  |  |  |  | inactive
14 | Cc1ccc(C2C/C(=N\N3C(=O)CNC3=S)C(C)(C)C(c3ccc(C)cc3)N2)cc1 (configuration not stated) | 25 µg/mL (≈ 59.4 µM) | 25 µg/mL (≈ 59.4 µM) | 25 µg/mL (≈ 59.4 µM) | 50 µg/mL (≈ 119 µM) | 100 µg/mL (≈ 238 µM) | 25 µg/mL (≈ 59.4 µM) | 25 µg/mL (≈ 59.4 µM) | 6.25 µg/mL (≈ 14.9 µM) | 12.5 µg/mL (≈ 29.7 µM) |  |  |  | 
15 | O=C1CNC(=S)N1N=C1CC(c2ccc(Cl)cc2)NC(c2ccc(Cl)cc2)C1 (configuration not stated) | 50 µg/mL (≈ 115 µM) | 6.25 µg/mL (≈ 14.4 µM) | 6.25 µg/mL (≈ 14.4 µM) | 12.5 µg/mL (≈ 28.8 µM) | 6.25 µg/mL (≈ 14.4 µM) | 50 µg/mL (≈ 115 µM) | 50 µg/mL (≈ 115 µM) | 12.5 µg/mL (≈ 28.8 µM) | 25 µg/mL (≈ 57.7 µM) |  |  |  | 
16 | OC(Cn1cncn1)(Cn1cncn1)c1ccc(F)cc1F [FLUCONAZOLE] |  |  |  |  |  | 50 µg/mL (≈ 163 µM) | 50 µg/mL (≈ 163 µM) | 25 µg/mL (≈ 81.6 µM) | 25 µg/mL (≈ 81.6 µM) |  |  |  | 
17 | O=C1CNC(=S)N1N=C1CC(c2ccc(F)cc2)NC(c2ccc(F)cc2)C1 (configuration not stated) | 50 µg/mL (≈ 125 µM) | 6.25 µg/mL (≈ 15.6 µM) | 6.25 µg/mL (≈ 15.6 µM) | 12.5 µg/mL (≈ 31.2 µM) | 6.25 µg/mL (≈ 15.6 µM) | 12.5 µg/mL (≈ 31.2 µM) | 50 µg/mL (≈ 125 µM) | 50 µg/mL (≈ 125 µM) | 50 µg/mL (≈ 125 µM) |  |  |  | 
